US6242438A, “3-Azetidinylalkylpiperidines or -pyrrolidines as tachykinin antagonists” (Pfizer Inc., priority 1996, dated 2001)

Target: T1, NK3 receptor (Cavia porcellus, UniProt P30098)
T1 construct: contractile effects of the selective NK3 receptor agonist senktide in the guinea-pig ileum; from tissue; host or cells: guinea-pig ileum
T1 sequence (P30098 1-440): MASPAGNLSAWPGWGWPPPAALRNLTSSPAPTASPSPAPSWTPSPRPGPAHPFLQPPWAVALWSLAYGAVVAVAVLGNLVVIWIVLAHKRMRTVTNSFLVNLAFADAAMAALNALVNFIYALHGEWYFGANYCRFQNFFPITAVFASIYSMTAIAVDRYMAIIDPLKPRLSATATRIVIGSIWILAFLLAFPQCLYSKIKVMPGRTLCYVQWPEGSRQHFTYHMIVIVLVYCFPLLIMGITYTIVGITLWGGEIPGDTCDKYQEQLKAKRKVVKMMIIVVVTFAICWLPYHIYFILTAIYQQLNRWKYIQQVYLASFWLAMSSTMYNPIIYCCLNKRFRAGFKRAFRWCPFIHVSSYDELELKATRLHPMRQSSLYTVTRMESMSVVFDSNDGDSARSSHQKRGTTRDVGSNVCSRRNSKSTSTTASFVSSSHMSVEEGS
Test: NK3 receptor antagonist activity in vitro: antagonism of contractile effects of senktide in guinea-pig ileum
Settings: antagonism of contractile effects of the selective NK3 receptor agonist senktide, read-out: pIC50 for NK3 activity (converted)
Description: The compounds of the formula (I) and their salts can be tested for NK3 receptor antagonist activity, in vitro, by testing their ability to antagonise the contractile effects of the selective NK3 receptor agonist senktide in the guinea-pig ileum using the method of Maggi et al, Br. J. Pharmacol., 101, 996-1000 (1 990).

Question: Which IC50 does the source give for NS(=O)(=O)N1CCN(C2CN(CCCC3(c4ccc(Cl)c(Cl)c4)CCCN(C(=O)c4ccccc4)C3)C2)CC1 (stereo not shown) [Example 2] here?
Answer: 3.98 nM
